Data from the Deep4Chem optical property database.
“And” between values parts separate entries of the source, which are not always exact repeats. Equal values may be shown once. Each block holds one compound with its values, some of them ahead of it.

Test: solvent given as SMILES

SMILES: CN(C)c1ccc(C2=Cc3cc(Cl)nc[n+]3[B-](F)(F)O2)cc1
absorption maximum (in C1CCOC1): 451 nm | absorption maximum (in CC#N): 452 nm | absorption maximum (in CCCCCC): 444 nm | absorption maximum (in Cc1ccccc1): 453 nm | absorption maximum (in ClC(Cl)Cl): 460 nm | absorption maximum (in ClCCl): 459 nm

SMILES: COc1ccc(-c2nc(-c3ccccc3)c(N(C)C)[se]2)cc1
absorption maximum (in ClC(Cl)Cl): 339 nm

SMILES: CCN(CC)c1ccc2cc(/C=C/c3cccc[n+]3CCCS(=O)(=O)[O-])c(=O)oc2c1
absorption maximum (in C1CCOC1): 513 nm | absorption maximum (in CC#N): 486 nm | absorption maximum (in CC(C)=O): 530 nm | absorption maximum (in CS(C)=O): 494 nm | absorption maximum (in Cc1ccccc1): 487 nm | absorption maximum (in O): 481 nm | absorption maximum (in OCC(O)CO): 496 nm

SMILES: c1ccc(-c2nc(-c3ccc(-c4ccc(-c5nc(-c6ccccc6)c(-c6ccccc6)o5)cc4)cc3)oc2-c2ccccc2)cc1
absorption maximum (in C1COCCO1): 353 nm

SMILES: CC1=CC(C)=[N+]2C1=C(C)c1cccn1[B-]2(F)F
absorption maximum (in CCCCCC): 492 nm | absorption maximum (in CO): 486 nm | absorption maximum (in ClCCl): 488 nm

SMILES: Cn1c(-c2ccc(-c3nc(-c4ccccc4)c(-c4ccccc4)n3C)cc2)nc(-c2ccccc2)c1-c1ccccc1
absorption maximum (in CC#N): 365 nm and 334 nm

SMILES: Cc1ccc(C2=C3C=C4C(=[N+]3[B-](F)(F)n3c2cc2c3-c3ccccc3C23c2ccccc2-c2ccccc23)c2ccccc2C42c3ccccc3-c3ccccc32)cc1
absorption maximum (in C1CCOC1): 634 nm

SMILES: N#Cc1ccc(-n2c(-c3ccc(-c4ccc(N(c5ccccc5)c5ccccc5)cc4)s3)nc3c4ccccc4c4ccccc4c32)c2ccccc12
absorption maximum (in ClCCl): 308 nm

SMILES: CC1(C)c2ccccc2N(c2ccc(-c3nnc(-c4ccc(N5c6ccccc6C(C)(C)c6ccccc65)cc4)o3)cc2)c2ccccc21
absorption maximum (in Cc1ccccc1): 360 nm

SMILES: c1ccc(CO[Si]23n4c5c6ccccc6c4/N=C4N=C(/N=c6/c7ccccc7c(n62)=c2c6ccccc6c(n23)=N5)c2ccccc2\4)cc1 (stereo unspecified)
absorption maximum (in CN(C)C=O): 658 nm

SMILES: OC1(c2ccc(-c3cccs3)s2)CCC1
absorption maximum (in C1CCOC1): 311 nm | absorption maximum (in CC#N): 309 nm | absorption maximum (in CCCCCC): 308 nm | absorption maximum (in CCO): 310 nm | absorption maximum (in OCCOCCO): 314 nm | absorption maximum (in c1ccncc1): 316 nm

SMILES: CC(C)(C)c1ccc2ccc3cc(-c4ccc5c(-c6ccc7c(ccc8ccc(C(C)(C)C)cc87)c6)cc6c7cc(-c8ccc9c(ccc%10ccc(C(C)(C)C)cc%109)c8)ccc7c(-c7ccc8c(ccc9ccc(C(C)(C)C)cc98)c7)cc6c5c4)ccc3c2c1
absorption maximum (in ClCCl): 303 nm

SMILES: CCCC1=Cc2nc1ccc1[nH]c(cc1CCC)c1nc(c(O)cc3[nH]c2cc3CCC)C(CCC)=C1
absorption maximum (in Cc1ccccc1): 677 nm

SMILES: Cc1cc(-c2nnc(-c3c(C(C)C)cc(C(C)C)cc3C(C)C)o2)ccc1-n1c2ccccc2c2ccccc21
absorption maximum (in Cc1ccccc1): 339 nm

SMILES: CCC1=C(C)C2=C(/C=C/c3ccc(OC)cc3)c3c(C)c(CC)c(C)n3[B-](F)(F)[N+]2=C1C
absorption maximum (in ClCCl): 529 nm

SMILES: c1ccc(N(c2ccccc2)c2ccc(-c3ccc4c(c3)C3(c5ccccc5Oc5ccccc53)c3cc(-c5ccc(N(c6ccccc6)c6ccccc6)cc5)ccc3-4)cc2)cc1
absorption maximum (in ClCCl): 372 nm

SMILES: Cc1ccc(C2=C3C=CC(/C=C/c4ccccc4)=[N+]3[B-](F)(F)n3c(Cl)ccc32)cc1
absorption maximum (in C1CCCCC1): 569 nm | absorption maximum (in C1CCOC1): 568 nm | absorption maximum (in C1COCCO1): 569 nm | absorption maximum (in CCOC(C)=O): 565 nm | absorption maximum (in CO): 564 nm | absorption maximum (in Cc1ccccc1): 572 nm | absorption maximum (in ClC(Cl)Cl): 571 nm

SMILES: COc1ccc2c(c1)N(c1ccc(C)cc1)c1cc3c(cc1=N2)Oc1c(cc(C(C)(C)C)cc1C(C)(C)C)N=3
absorption maximum (in CC#N): 540 nm | absorption maximum (in CCCCCC): 562 nm | absorption maximum (in CO): 555 nm

SMILES: I[I-]I
absorption maximum (in O): 351.77 nm

SMILES: Cc1nc(-c2ccc(-n3c4ccccc4c4ccccc43)cc2)cc(-c2ccc(-n3c4ccccc4c4ccccc43)cc2)n1
absorption maximum (in C1CCOC1): 343 nm | absorption maximum (in CN(C)C=O): 343 nm | absorption maximum (in Cc1ccccc1): 355 nm | absorption maximum (in ClC(Cl)Cl): 343 nm

SMILES: CCOC(=O)COc1ccc(/C=C/c2cc(C)c3n2[B-](F)(F)[N+]2=C(c4[nH]c(C)cc4C)c4ccccc4C2=C3)cc1
absorption maximum (in C1CCOC1): 679 nm | absorption maximum (in CC#N): 670 nm | absorption maximum (in CCCCCC): 679 nm | absorption maximum (in CO): 671 nm | absorption maximum (in Cc1ccccc1): 678 nm | absorption maximum (in ClCCl): 680 nm

SMILES: CC(C)(C)c1ccc2c(c1)c1cc(C(C)(C)C)ccc1n2-c1ccc(C#Cc2ccc3c4ccc(C#Cc5ccc(C=C(C#N)C#N)cc5)cc4n(-c4ccc(C(F)(F)F)cc4)c3c2)cc1
absorption maximum (in ClCCl): 355 nm

SMILES: CC[n+]1c(C=C2C(=O)C(C=C3N(C)c4ccc(Cl)cc4C3(C)C)=C2[O-])[se]c2ccccc21
absorption maximum (in CO): 644 nm | absorption maximum (in ClC(Cl)Cl): 655 nm | absorption maximum (in ClCCl): 659 nm

SMILES: CN(C)c1ccc(C#Cc2ccc(C=O)cc2)cc1
absorption maximum (in C1CCCCC1): 381.5 nm | absorption maximum (in C1CCOC1): 379.51 nm | absorption maximum (in C1COCCO1): 375.01 nm | absorption maximum (in CC1CCCO1): 382 nm | absorption maximum (in CC#N): 375.01 nm | absorption maximum (in CC(C)=O): 388 nm | absorption maximum (in CC(C)CC(C)(C)C): 383.49 nm | absorption maximum (in CC(C)O): 380.5 nm | absorption maximum (in CCCCCCCCCCCCCCCC): 383 nm | absorption maximum (in CCCCCCCCCCCCCCCCCl): 390 nm | absorption maximum (in CCOC(C)=O): 375.01 nm | absorption maximum (in CCOCC): 372.49 nm | absorption maximum (in CN(C)C=O): 379.51 nm | absorption maximum (in CO): 380.5 nm | absorption maximum (in CS(C)=O): 387 nm | absorption maximum (in Cc1ccccc1): 381.5 nm

SMILES: CCCCN1C(=S)c2cccc3c(N(C)C)ccc(c23)C1=S
absorption maximum (in CC#N): 571 nm | absorption maximum (in CS(C)=O): 588 nm | absorption maximum (in Cc1ccccc1): 536 nm

SMILES: CC1=[N+]2C(=C(c3ccccc3)c3c4c5ccccc5c5ccccc5c4c(C)n3[B-]2(F)F)c2c1c1ccccc1c1ccccc21
absorption maximum (in CCCCCC): 630 nm

SMILES: C(#Cc1ccccc1)C(C#Cc1ccccc1)=Cc1cccc(C=C(C#Cc2ccccc2)C#Cc2ccccc2)c1
absorption maximum (in ClC(Cl)Cl): 349 nm

SMILES: C(=C(c1ccccc1)c1ccccc1)c1ccc(-c2ccc(-c3nc4c5ccccc5c5ccccc5c4n3-c3cccc(-c4ccc(C=C(c5ccccc5)c5ccccc5)cc4)c3)cc2)cc1
absorption maximum (in C1CCOC1): 340 nm

SMILES: CC1=CC(C)=[N+]2C1=Cc1cccn1[B-]2(F)F
absorption maximum (in CCCCCC): 493 nm | absorption maximum (in CO): 493 nm | absorption maximum (in ClCCl): 498 nm

SMILES: CC(C)(C)c1ccc2c(c1)c1cc(C(C)(C)C)ccc1n2-c1cccc(-n2c3ccc(C(C)(C)C)cc3c3cc(C(C)(C)C)ccc32)c1C#N
absorption maximum (in Cc1ccccc1): 367 nm

SMILES: CCOC(=O)CCCCCn1c2ccccc2c(=O)c2cc3c(cc21)c(=O)c1cc(I)ccc1n3CCCCCC(=O)OCC
absorption maximum (in CO): 535 nm

SMILES: C[N+]1=C(/C=C/C2=C3Oc4c(cc5c6c4CCCN6CCC5)C(c4ccccc4C(=O)O)=C3CCC2)C(C)(C)c2ccccc21
absorption maximum (in CC#N): 724 nm | absorption maximum (in CCO): 710 nm | absorption maximum (in CO): 714 nm | absorption maximum (in ClC(Cl)Cl): 730 nm

Results, then the compound that gave them:

absorption maximum (in ClCCl): 402 nm
SMILES: Cc1cc(-c2ccc(C(C)(C)C)cc2)c2nsnc2c1-c1ccc(N(c2ccccc2)c2ccccc2)cc1

absorption maximum (in CC#N): 334 nm | absorption maximum (in CCCCOCCCC): 336 nm | absorption maximum (in CO): 334 nm
SMILES: CC(=O)Nc1cc2ccc3cccc4ccc(c1)c2c34

absorption maximum (in ClC(Cl)Cl): 376 nm
SMILES: c1ccc(-c2c3c(nc4ccccc24)-c2cc4c(cc2CC3)-c2nc3ccccc3c(-c3ccccc3)c2CC4)cc1

absorption maximum (in CN(C)C=O): 333 nm
SMILES: Cc1ccc2[nH]c(-c3ccc(-c4ccc(-c5ccc(-c6nc7cc(C)ccc7[nH]6)cc5)c(C)c4)cc3)nc2c1

absorption maximum (in ClCCl): 439 nm
SMILES: c1ccc(-c2cc3cc4cccc5c(-c6ccccc6)cc6cc7cccc2c7c3c6c45)cc1

absorption maximum (in CC#N): 696 nm | absorption maximum (in CCO): 688 nm | absorption maximum (in CO): 690 nm | absorption maximum (in ClC(Cl)Cl): 702 nm
SMILES: CCNc1cc2c(cc1C)C(c1ccccc1C(=O)O)=C1CCCC(/C=C/C3=[N+](C)c4ccccc4C3(C)C)=C1O2

absorption maximum (in ClCCl): 401 nm
SMILES: COC(=O)c1[nH]c(-c2ccccc2)c2nnc3ccsc3c12

absorption maximum (in O): 295 nm
SMILES: O=S(=O)([O-])c1ccc2c(O)cc(S(=O)(=O)[O-])cc2c1

absorption maximum (in CC#N): 442 nm | absorption maximum (in CCCCCC): 434 nm | absorption maximum (in CCCCOCCCC): 437 nm | absorption maximum (in CCOC(C)=O): 439 nm | absorption maximum (in CN(C)C=O): 445 nm
SMILES: O=c1c2ccccc2n2c3ccc(-c4ccccc4)cc3c(=O)c3cccc1c32

absorption maximum (in ClC(Cl)Cl): 348 nm
SMILES: CC(C)(C)c1ccc2oc3nc4oc5ccc(N6c7ccccc7Sc7ccccc76)cc5c4cc3c2c1

absorption maximum (in C1COCCO1): 406 nm
SMILES: COc1ccc(C2=C/C(=C\c3ccccc3)C(=O)O2)cc1OC

absorption maximum (in C1COCCO1): 445 nm | absorption maximum (in CC#N): 448 nm | absorption maximum (in ClCCl): 453 nm
SMILES: CN(C)c1ccc(/C=C/c2nc3ccc(Br)cc3nc2-c2ccccc2)cc1

absorption maximum (in CC#N): 355 nm
SMILES: CCOC(=O)c1c(NC(C)(C)C)oc(-c2ccc(-c3ccccc3)cc2)c1C(=O)OCC

absorption maximum (in CC#N): 402 nm | absorption maximum (in CO): 407 nm
SMILES: COc1ccc(-c2c(-c3ccc(OC)cc3)c3c4c(cccc4c2-c2ccccc2)C(=O)c2ccccc2-3)cc1

absorption maximum (in C1CCCCC1): 405 nm | absorption maximum (in CC#N): 406 nm | absorption maximum (in CO): 405 nm | absorption maximum (in ClCCl): 409 nm
SMILES: COc1c2ccccc2c(OC)c2c1c1ccccc1n2C

absorption maximum (in CC#N): 365 nm
SMILES: N#C/C(=C\c1ccc(Cl)cc1)c1nc(-c2ccccc2)c(-c2ccccc2)s1

absorption maximum (in C1CCCCC1): 351 nm
SMILES: B1C=Cc2ccc3ccccc3c2N1

absorption maximum (in C1CCOC1): 307 nm | absorption maximum (in CC(C)O): 303 nm | absorption maximum (in CO): 303 nm | absorption maximum (in CS(C)=O): 306 nm | absorption maximum (in ClC(Cl)Cl): 310 nm | absorption maximum (in ClCCl): 309 nm
SMILES: Cc1ccc(-n2c(-c3ccccc3O)nc(-c3ccccc3O)c2-c2ccccc2O)cc1

absorption maximum (in ClCCl): 532 nm
SMILES: CC1=C(c2ccccc2)C(C)=[N+]2C1=C(c1c(-c3ccccn3)nc3ccccn13)c1c(C)cc(C)n1[B-]2(F)F

absorption maximum (in ClCCl): 333 nm
SMILES: c1ccc2c(-c3cc4c(ccc5sc(-c6cccc7ccccc67)cc54)s3)cccc2c1

absorption maximum (in ClCCl): 530 nm
SMILES: CC[C@H](C)COc1ccc(C2=C3C(C)=C(c4ccc5ccc6cccc7ccc4c5c67)C(C)=[N+]3[B-](F)(F)n3c(C)c(-c4ccc5ccc6cccc7ccc4c5c67)c(C)c32)cc1
